Laboratory results taken from patent US8026365B2, “4,4-disubstituted piperidine derivatives” (Hoffman-La Roche Inc., priority 2007, dated 2011).

Molecular target: T1, human subtype 5 somatostatin receptor (SSTR5) (Homo sapiens, UniProt P35346)
T1 construct: host or cells: CHO cell line, stably transfected; membranes prepared by sonication and centrifugation
Assay: radioligand replacement (binding) assay, 125I-labeled 11-Tyr somatostatin-14, membranes of CHO cells expressing SSTR5
Settings: membranes of CHO cells stably transfected with human SSTR5; 0.05 nM 125I tracer; Ki calculated from IC50 by Cheng-Prussoff equation
Description: A CHO cell line stably transfected with a plasmid encoding the human subtype 5 somatostatin receptor (GenBank accession number D16827) was obtained from Euroscreen. Cells were cultured and used for binding and functional assays.
Membranes of these cells were prepared by sonication in the presence of protease inhibitors and subsequent fractionating centrifugation. The protein concentration in the membrane preparation was determined using a commercial kit (BCA kit, Pierce, USA). Membranes were stored at −80° C. until use. After thawing membranes were diluted in assay buffer (50 mM Tris-HCl at pH 7.4, 5 mM MgCl2 and 0.20% BSA) and subjected to dounce homogenization.
For binding studies, 0.1 mL membrane suspension, corresponding to approximately 6×10^−15 mol receptor, was incubated for 1 h at room temperature with 0.05 nM ^125I-labeled tracer (11-Tyr somatostatin-14, Perkin-Elmer) and either test compounds in varying concentrations or, for the determination of non-specific binding, 0.001 mM non-labeled somatostatin-14. The incubation was stopped by filtration through GF/B glassfiber filters and washing with ice-cold wash buffer (50 mM Tris-HCl at pH 7.4). The bound radioactivity was measured after application of a scintillation cocktail (Microscint 40) and expressed as disintegrations per minute (dpm).
The receptor concentration was determined in a prior saturation experiment where a fixed, arbitrary amount of membranes was incubated with a concentration range of radio-labeled tracer. This allows estimating the total number of specific binding sites per amount of protein (i.e., Bmax), typically between 1 and 5 pmol/mg.
The concentration of the test compound required to result in half maximal inhibition of binding of the radio-labeled tracer (IC50) was estimated from a concentration-versus-dpm graph. The binding affinity (Ki) was calculated from the IC50 by applying the Cheng-Prussoff equation for single binding sites.

T1 sequence (P35346 whole entry): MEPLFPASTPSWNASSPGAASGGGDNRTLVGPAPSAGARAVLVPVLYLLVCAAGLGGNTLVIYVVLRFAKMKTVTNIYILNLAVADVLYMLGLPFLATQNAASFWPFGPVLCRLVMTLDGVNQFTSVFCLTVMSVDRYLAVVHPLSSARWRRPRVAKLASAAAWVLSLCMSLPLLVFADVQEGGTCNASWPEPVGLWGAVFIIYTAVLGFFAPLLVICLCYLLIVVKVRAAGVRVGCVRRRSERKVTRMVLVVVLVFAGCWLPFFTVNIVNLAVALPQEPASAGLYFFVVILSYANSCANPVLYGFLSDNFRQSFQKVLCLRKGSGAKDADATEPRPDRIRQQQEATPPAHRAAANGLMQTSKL

SMILES | Ki
CCOc1cc(CN2CCC3(CC2)NC(=O)NC3=O)ccc1Cl [Example 2, 8-(4-chloro-3-ethoxy-benzyl)-1,3,8-triaza-spiro[4.5]decane-2,4-dione] | 51 nM
CCOc1cc(CN2CCC3(CC2)NC(=O)NC3=O)cc(OCC)c1Cl [Example 5, 8-(4-chloro-3,5-diethoxy-benzyl)-1,3,8-triaza-spiro[4.5]decane-2,4-dione] | 42 nM
CCOc1cc(CN2CCC3(CC2)NC(=O)NC3=O)cc(OCC)c1-n1cccc1 [Example 7, 8-(3,5-diethoxy-4-pyrrol-1-yl-benzyl)-1,3,8-triaza-spiro[4.5]decane-2,4-dione] | 15 nM
CCOc1cc(CN2CCC3(CC2)CCN(c2ccccc2)C3=O)cc(OCC)c1Cl [Example 11, 8-(4-chloro-3,5-diethoxy-benzyl)-2-phenyl-2,8-diaza-spiro[4.5]decan-1-one] | 228 nM
COc1ccc(CN2CCC3(CC2)N=C(c2ccccc2)NC3=O)cc1OC1CCCC1 [Example 33, 8-(3-cyclopentyloxy-4-methoxy-benzyl)-2-phenyl-1,3,8-triaza-spiro[4.5]dec-1-en-4-one] | 273 nM
CCOc1cc(CN2CCC3(CC2)N=C(c2ccccc2)NC3=O)cc(OCC)c1Br [Example 38, 8-(4-bromo-3,5-diethoxy-benzyl)-2-phenyl-1,3,8-triaza-spiro[4.5]dec-1-en-4-one] | 18 nM
CCOc1cc(CN2CCC(NC(=O)c3ccc(Cl)cc3)(C(N)=O)CC2)cc(OCC)c1Cl [Example 42, 4-(4-chloro-benzoylamino)-1-(4-chloro-3,5-diethoxy-benzyl)-piperidine-4-carboxylic acid amide] | 96 nM
CCOc1cc(CN2CCC(C#N)(NC(=O)c3cncc(C)c3)CC2)cc(OCC)c1F [Example 44, N-[4-cyano-1-(3,5-diethoxy-4-fluoro-benzyl)-piperidin-4-yl]-5-methyl-nicotinamide] | 342 nM
CCOc1cc(CN2CCC(C#N)(NC(=O)c3ccc(Cl)nc3)CC2)cc(OCC)c1-c1ccc(F)cc1 [Example 46, 6-chloro-N-[4-cyano-1-(2,6-diethoxy-4′-fluoro-biphenyl-4-ylmethyl)-piperidin-4-yl]-nicotinamide] | 66 nM

Now from value to molecule:

Ki | SMILES
37 nM | CCOc1cc(CN2CCC3(CC2)N=C(c2ccccc2)NC3=O)ccc1C [Example 15, 8-(3-ethoxy-4-methyl-benzyl)-2-phenyl-1,3,8-triaza-spiro[4.5]dec-1-en-4-one]
50 nM | CCOc1cc(CN2CCC3(CC2)N=C(c2ccccc2)NC3=O)ccc1Cl [Example 17, 8-(4-chloro-3-ethoxy-benzyl)-2-phenyl-1,3,8-triaza-spiro[4.5]dec-1-en-4-one]
226 nM | CCOc1cc(CN2CCC3(CC2)N=C(c2ccccc2)NC3=O)ccc1OC(F)F [Example 26, 8-(4-difluoromethoxy-3-ethoxy-benzyl)-2-phenyl-1,3,8-triaza-spiro[4.5]dec-1-en-4-one]
717 nM | COc1ccc(CN2CCC3(CC2)N=C(c2ccccc2)NC3=O)cc1OCCF [Example 29, 8-[3-(2-fluoro-ethoxy)-4-methoxy-benzyl]-2-phenyl-1,3,8-triaza-spiro[4.5]dec-1-en-4-one]
